Assay results reported in patent US9296778B2, “3′,5′-cyclic phosphate prodrugs for HCV infection” (Idenix Pharmaceuticals, Inc., priority 2012, dated 2016).

Key:
[1] = Stability in fresh human whole blood; type: in vitro ADME; conditions: 0.5 μM, percent unchanged test compound
Protocol: (§1) Stability of compounds were determined in fresh human whole blood with K2EDTA as the anticoagulant (stored refrigerated at 2-8° C. and used within 7 days of receipt). The experiment was conducted with three replicates for each time point. Whole blood, pre-incubated at 37° C. for 10-15 minutes, was fortified with a solution of test compound for a final concentration of 0.5 μM and mixed for 30 sec. At intervals (0, 0.5, 1 and 2 hr), three 50 μL aliquots were combined with 200 μL (each) of an ice-cold solution of the internal standard (carbutamide 500 ng/mL in acetonitrile). The samples were vortexed for 30 sec and then centrifuged at 16,100 g for 5 min. The supernatant was analyzed by LC-MS/MS. The MS peak area ratio of the test compounds versus the internal standard was calculated and percent unchanged test compound was calculated for each time point using this ratio.

[2] = system: Zluc cells; assay: cytotoxicity evaluation (CellTiter-Blue Cell Viability Assay); conditions: read-out: HCV Replicon CC50; Zluc cells, CellTiter-Blue
[3] = Stability in simulated intestinal fluid; type: in vitro ADME; conditions: 100 μM, 2 hours at 37° C., percent of the peak area at time zero
Protocol: Simulated gastric and intestinal fluids containing pepsin and pancreatin respectively were prepared according to the U.S. Pharmacopoeia USP291 procedure (www.pharmacopeia.cn/v29240/usp29nf24s0_ris1s126.html). Compounds (final concentration 100 μM) were incubated in duplicate in the appropriate fluid for 2 hours at 37° C. The samples were quenched with 200 μl cold acetonitrile, vortexed for 30 seconds and then centrifuged at 16,100 g for 10 min. The supernatants were analyzed by HPLC on a C-18 column with UV detection at 252 nm. The time 0 samples were prepared by adding SGF or SIF fluid to the quenching solvent followed by the test compound. Stability of the compounds was determined by peak area of the test compounds after incubation and calculated as percent of the peak area observed at time zero.

[4] = system: HCV genotype 1b replicon; assay: HCV Replicon Assay; type: cell-based; conditions: Zluc cells (Huh-7-derived, HCV genotype 1b replicon, luciferase reporter), 72 hours; read-out: HCV Replicon EC50
Protocol: Huh-7-derived cell line (Zluc) that harbors an HCV genotype 1b replicon and a luciferase reporter gene was grown in Dulbecco's Modified Eagle Medium (DMEM) supplemented with 10% fetal bovine serum, 2 mM GlutaMAX, 1% MEM nonessential amino acids, 100 IU/mL penicillin, 100 μg/mL streptomycin, and 0.5 mg/mL Geneticin® (G418). For dose response testing the cells were seeded in 96-well plates at 7.5×10^3 cells per well in a volume of 50 μL, and incubated at 37° C./5% CO2. Drug solutions were made up freshly in Huh-7 media as 2× stocks. Ten additional 5-fold dilutions were prepared from these stocks in DMEM without G418. At least three hours after Zluc cells were seeded, drug treatment was initiated by adding 50 μL of drug dilutions to the plates in duplicate. Final concentrations of drug ranged from 100 μM to […]. Cells were then incubated at 37° C./5% CO2. Alternatively, compounds were tested at two concentrations (1 μM and 10 μM). […] For this, media was removed from the plates via gentle tapping. Fifty microliters of ONE-glo luciferase assay reagent was added to each well. The plates were shaken gently for 3 min at room temperature and luminescence was measured on a Victor^3 V 1420 multilabel counter (Perkin Elmer) with a 1 second read time using a 700 nm cut-off filter. The EC50 values were calculated from dose response curves from the resulting best-fit equations determined by Microsoft Excel and XLfit 4.1 software. When screening at two fixed concentrations, the results were expressed as % inhibition at 1 μM and 10 μM.

[5] = system: fresh human hepatocytes; assay: Release of active metabolite in fresh human hepatocytes; type: in vitro ADME; conditions: 10 μM compound; for FHH TP Cmax: fresh human hepatocytes; for FHH TP AUC: fresh human hepatocytes, 6, 24 and 48 hours
Protocol: (§2) Plates of fresh human and mouse hepatocytes were obtained on ice. The medium was removed and replaced with hepatocyte culture medium (William's E supplemented with penicillin-streptomycin, 1% L-glutamine, 1% insulin-transferrin-selenium and 0.1 μM Dexamethasone (Invitrogen) or with Invitro GRO HI medium complemented with Torpedo antibiotics (Celsis)). Cells were left overnight in an incubator at 37° C. to acclimatize to culture and the medium.
(§3) Hepatocyte incubations were conducted at a final volume of 0.5 mL hepatocyte culture medium/well (0.8 million cells/well for human and 0.5 million cells/well for mouse; 12 well plate no overlay, collagen coat). Culture medium from overnight incubation of cells was removed and replaced with fresh medium, pre-warmed to 37° C., containing 10 μM of test compound from a stock solution in DMSO (final DMSO concentration was 0.1%). At each specific time point, incubation medium was removed and cell monolayers were carefully washed two times with ice-cold PBS. Following the last wash, all PBS was carefully removed and 1.0 mL of extraction solution (ice-cold 70% methanol/30% water) added. Cells were scraped off and suspended in the extraction solution, transferred to 2 mL polypropylene microfuge tubes and intracellular contents extracted overnight at −20° C.
(§4) After the overnight treatment the cellular extracts were prepared by centrifugation at 16,000×g for 10 min to remove cellular debris. The remaining sample was then dried using a refrigerated centrivap concentrator. Dry extracts were reconstituted in 1000 μL of HPLC-grade water and centrifuged at 16,000×g for 10 min. Aliquots (100 μL each) of the supernatant were transferred into a 96 well plate and internal standard (4 ng/mL final concentration) was added as the internal standard (IS) for LC-MS/MS analysis.
(§5) The incubation time points were 6, 24 and 48 hours for human hepatocytes and 1, 4, 8, 12 and 24 hours for mouse hepatocytes.

[6] = Liver pharmacokinetics following a single oral dose in CD-1 mice; type: in vivo; conditions: single oral dose 25 mg/kg in PEG 200, CD-1 male mice, given at 1 μmol/kg
Protocol: (§6) A single oral dose of test compound at 25 mg/kg in PEG 200 (dose volume 5 mL/kg) was administered to nine CD-1 male mice. Five untreated animals were used for the collection of control plasma and liver. Terminal plasma and liver samples were collected from three animals per time point at 4, 12 and 24 hours post dose. Liver specimens were collected from all animals immediately after the incision. Freezing forceps stored in liquid nitrogen were used to freeze the liver before excision.
Liver samples were analyzed for the active species 2′-methylguanosine triphosphate (2′-MeGTP) by LC-MS/MS. 2′-MeGTP levels were assayed by homogenizing (on ice) a known weight of mouse liver with 4× volume of 0.95 M trichloroacetic acid (TCA). Internal standard solution was added to the homogenate followed by neutralization with 20% ammonium hydroxide solution and addition of 500 μL 1% formic acid. The tissue samples were extracted by weak anion exchange solid phase extraction (SPE). Post extraction, the eluates were evaporated under nitrogen, followed by reconstitution before injection onto the LC-MS/MS system. The samples were chromatographed on a Luna NH2 column using a gradient system of ammonium acetate (1 mM to 20 mM and pH 8.0 to pH 10.0) in water and acetonitrile (70:30). The analyte was detected and quantified by tandem mass spectrometry in positive ion mode on an API4000 equipped with a Turbo Ionspray® interface. The calibration range was 10 to 10000 pmol/mL in mouse liver homogenate (50 to 50000 pmol/g of mouse liver).

[7] = Plasma pharmacokinetics following a single oral dose in CD-1 mice; type: in vivo; conditions: single oral dose 25 mg/kg in PEG 200, CD-1 male mice, given at 1 μmol/kg
Protocol: as §6
Plasma samples were analyzed for 2′-methylguanosine (2′-MeG) by LC-MS/MS. The internal standard (IS) was 2′-MeG-D3. For protein precipitation and extraction, each plasma sample (50 μL) was treated with 500 μL of 0.2% formic acid in acetonitrile and 20 μL of the internal standard working solution. After vortexing and centrifugation, 500 μL of the sample extracts were transferred to a new plate, dried under N2 at ˜28° C. and reconstituted with 75 μL of 0.2% FA in water. The extracts were chromatographed on an Aquasil C18 column using a gradient system of 0.2% formic acid in water and acetonitrile. The analytes were detected and quantified by tandem mass spectrometry in positive ion mode on an MDS Sciex API5000 equipped with a Turbo Ionspray® interface. The calibration range was 0.500 (LLOQ) to 200 ng/mL in mouse plasma.

[8] = system: mouse hepatocytes; assay: Release of active metabolite in mouse hepatocytes; type: in vitro ADME; conditions: 10 μM compound; for MsH AUC: mouse hepatocytes, 1, 4, 8, 12 and 24 hours
Protocol: as §2, §3, §4, §5

[9] = Stability in mouse blood; type: in vitro ADME; conditions: on ice, percent unchanged test compound
Protocol: as §1
The stability in mouse blood was determined on ice at 0, 0.5 and 1 hr as herein.

| SMILES | Stability WB_Human (37° C.; 2 hr) [1] | CC50 [2] | Stability SIF [3] | EC50 [4] | FHH TP Cmax [5] | FHH TP AUC [5] | Ms Liver 2′-MeGTP AUC [6] | Ms Plasma 2′-MeG AUC [7] | Ms Plasma 2′-MeG Cmax [7] | MsH Cmax ([8]; mouse hepatocytes) | MsH AUC [8] | Stability WB_Mouse (ice; 1 hr) [9] | Ms Liver 2′-MeGTP AUC ([6]; 25 mg/kg) | Ms Plasma 2′-MeG AUC ([7]; 25 mg/kg) | Ms Plasma 2′-MeG Cmax ([7]; 25 mg/kg) |
| --- | --- | --- | --- | --- | --- | --- | --- | --- | --- | --- | --- | --- | --- | --- | --- |
| CCOC(=O)CCOP1(=O)OC[C@H]2O[C@@H](n3cnc4c(OCC)nc(N)nc43)[C@](C)(F)[C@@H]2O1 (single isomer, unassigned; diastereomer 1) [Compound 8 Diastereomer 1] | 89% | > 50 µM | 96% | < 0.25 µM | BLD^a | BLD^a |  |  |  |  |  |  |  |  |  |
| CCOc1nc(N)nc2c1ncn2C1OC2COP(=O)(OCC(NC(=O)OC)C(=O)OC(C)C)OC2C1(C)O (single isomer, unassigned; diastereomer 1) [Compound 14 Diastereomer 1] | 62% | < 50 µM | 88% | < 0.25 µM | 19 pmol/mill cells | 224 pmol · hr/mill cells |  |  |  |  |  |  |  |  |  |
| CCOc1nc(N)nc2c1ncn2[C@@H]1O[C@@H]2COP(=O)(OCCCC(=O)OC(C)C)O[C@H]2[C@@]1(C)F (single isomer, unassigned; diastereomer 2) [Compound 3 Diastereomer 2] |  |  |  |  | 146 pmol/mill cells | 4574 pmol · hr/mill cells | 3200 pmol · hr/g at 1 μmol/kg | 160 pmol · hr/mL at 1 μmol/kg | 17 pmol/mL at 1 μmol/kg | 91 pmol/mill cells | 3265 pmol · hr/mill cells |  |  |  |  |
| CCOc1nc(N)nc2c1ncn2[C@@H]1O[C@@H]2COP(=O)(OCCC(=O)OC(C)C)O[C@H]2[C@@]1(C)O (single isomer, unassigned; diastereomer 2) [Compound 22 Diastereomer 2] | 88% | > 50 µM | 101% | < 0.25 µM | 28 pmol/mill cells | 742 pmol · hr/mill cells |  |  |  |  | BLD^a |  |  |  |  |
| CCOc1nc(N)nc2c1ncn2[C@@H]1O[C@@H]2COP(=O)(OCCCC(=O)OC(C)C)O[C@H]2[C@@]1(C)F (single isomer, unassigned; diastereomer 1) [Compound 3 Diastereomer 1] | 20.5% | < 50 µM | 92% | < 0.25 µM |  |  |  |  |  |  |  | 14% |  |  |  |
| CCOc1nc(N)nc2c1ncn2[C@@H]1O[C@@H]2COP(=O)(OCCC(=O)OC(C)C)O[C@H]2[C@@]1(C)F (single isomer, unassigned; diastereomer 1) [Compound 21 Diastereomer 1] | 86% |  | 91% |  | BLD^a | BLD^a |  |  |  |  | BLD^a |  |  |  |  |
| CCOC(=O)CCOP1(=O)OC[C@H]2O[C@@H](n3cnc4c(OCC)nc(N)nc43)[C@](C)(F)[C@@H]2O1 (single isomer, unassigned; diastereomer 2) [Compound 8 Diastereomer 2] | 34% | > 50 µM | 94% | < 0.25 µM | BLD^a | BLD^a |  |  |  |  |  |  |  |  |  |
| CC(C)OC(=O)CCCOP1(=O)OC[C@H]2O[C@@H](n3cnc4c(=O)[nH]c(N)nc43)[C@](C)(F)[C@@H]2O1 (single isomer, unassigned; diastereomer 2) [Compound 6 Diastereomer 2] |  | > 50 µM |  | < 0.25 µM |  |  |  |  |  |  | BLD^a |  | 530 pmol · hr/g at 1 μmol/kg | 54 pmol · hr/mL at 1 μmol/kg | 7.2 pmol/mL at 1 μmol/kg |
| CCOc1nc(N)nc2c1ncn2C1OC2COP(=O)(Oc3ccc(CC(NC(=O)OC)C(=O)OC(C)C)cc3)OC2C1(C)F (single isomer, unassigned; diastereomer 2) [Compound 13 Diastereomer 2] | 70% | > 50 µM | 72% | < 0.25 µM | 34 pmol/mill cells | 812 pmol · hr/mill cells |  |  |  |  |  | 1% |  |  |  |
| CC(C)OC(=O)CCCOP1(=O)OC[C@H]2O[C@@H](n3cnc4c(=O)[nH]c(N)nc43)[C@](C)(F)[C@@H]2O1 (single isomer, unassigned; diastereomer 1) [Compound 6 Diastereomer 1] |  | > 50 µM |  | 1 to 10 µM |  |  |  |  |  |  | BLD^a |  | 35 pmol · hr/g at 1 μmol/kg | 13 pmol · hr/mL at 1 μmol/kg | 1.3 pmol/mL at 1 μmol/kg |
